Measurements published in publication PMC7835349 (Communications Biology, 2021).
Several values for one entry are separate records, joined by “and”; a condition that tells them apart may be missing. Equal values may be shown once. Read-outs that look alike come from different tables or passages of the source.

Assays:
Type in all cases: in vivo
[1] = Formulation dependent plasma and tumour pharmacokinetics of AZD4320 (Fig S2b); conditions: mouse, 5 mg/kg IV, 30% HPbCD
Procedure: Supplementary Figure 2. Formulation dependent efficacy of AZD4320 (a) A single 5mg/kg IV bolus dose of AZD4320 formulated in 30% hydroxypropyl-β-cyclodextrin (HP-β-CD) […]
(§1) Data in the graphs are represented as mean tumor volume
± SEM (n=5). Arrow indicates dosing schedule.(b) A pharmacokinetic profile from both […]
explained by differential profiles in the plasma. The plasma profiles are similar. The efficacy is consistent with the concentration profiles observed in the tumour (n=4, Tween formulation, yellow, n=8 HP-β-CD formulation, purple). Lines connect the mean values.
(§2) (1 picture or pasted object on this page, not shown here)

[2] = Plasma pharmacokinetics after IV bolus in C.B-17 SCID mouse; conditions: for concentration at 0.05 h / concentration at 0.5 h / concentration at 1 h / concentration at 2 h / concentration at 4 h / concentration at 6 h / concentration at 8 h / Concentration AZD4320 in Plasma, individual animals: 5 mg/kg, mouse IV
Procedure: Pharmacokinetic studies were carried out in the female C.B-17 SCID mouse. Either freshly prepared solutions of AZD4320 in 30% hydroxypropyl-β-cyclodextrin or drug-dendrimer conjugates in phosphate buffered saline were injected as a bolus into the tail vein at dosing volume of 5 ml/kg. Blood samples were collected at different time points post dose and analysed as below.
Blood samples were collected from the jugular vein by venepuncture into K2EDTA (as anticoagulant) tubes. Immediately following collection into the K2EDTA tube the samples were mixed gently and kept on crushed ice until centrifugation. Within 30 mins of blood collection, each sample was centrifuged (1500 g for 10 min at 4 °C) to generate plasma which was kept on wet ice at all times in polypropylene tubes. Duplicate 50 μL aliquots were transferred immediately after centrifugation into uniquely labelled polypropylene tubes (‘released’ AZD4320) containing equivalent amount (50 μL) of 0.2 M citric acid solution, inverted 10 times and then stored in a freezer set to maintain a temperature of −80 °C, until analysis.
The concentrations of ‘total’ AZD4320 were determined in plasma by overnight incubation with hydrazine followed by protein precipitation with acetonitrile and subsequent liquid/liquid extraction. Liquid chromatography with mass spectrometric detection (LC-MS/MS, details in Supplementary Table 5) was used to quantitate both ‘released’ and ‘total’ AZD4320.
Sample analyses were performed in batches containing study samples, calibration standards at 10 concentration levels, QC samples at three concentration levels in duplicate and blank samples. The analytical run acceptance criteria for calibration standards and QC samples was that at least 75% of back-calculated concentrations for calibration standards and at least 2/3 of the QC samples (at least 50% at each concentration level) should be within ±20% (±25% at LLOQ) from nominal value.

tumours = assay: Formulation dependent efficacy of AZD4320 (Fig S2a); conditions: single 5mg/kg IV bolus
Procedure: Supplementary Figure 2. Formulation dependent efficacy of AZD4320 (a) A single 5mg/kg
IV bolus dose of AZD4320 formulated in 30% hydroxypropyl-β-cyclodextrin (HP-β-CD)
as §1
± SEM (n=5). […]
as §2

What does the source list for `CN(CCO)CCC(CSc1ccccc1)Nc1ccc(S(=O)(=O)NC(=O)c2ccc(N3CCC(C(O)c4ccccc4-c4ccc(Cl)cc4)CC3)cc2)cc1S(=O)(=O)C(F)(F)F` (stereo not drawn) [AZD4320]?
concentration at 6 h ([1]; C.B-17 SCID, plasma, iv, 5 mg/kg, 6 h, study CIV-12-112): 65 nM; concentration at 0.5 h ([1]; C.B-17 SCID, tumour, iv, 5 mg/kg, Tumor, 0.5 h, study CIV-11-055): 815 nM; concentration at 1 h ([1]; C.B-17 SCID, tumour, iv, 5 mg/kg, Tumor, 1 h, study CIV-11-055): 473 nM; concentration at 6 h ([1]; C.B-17 SCID, tumour, iv, 5 mg/kg, Tumor, 6 h, study CIV-11-055): 312 nM; concentration at 6 h ([1]; C.B-17 SCID, tumour, iv, 5 mg/kg, Tumor, 6 h, study CIV-12-112): 436 nM; concentration at 24 h ([1]; C.B-17 SCID, tumour, iv, 5 mg/kg, Tumor, 24 h, study CIV-11-055): 275 nM; concentration at 24 h ([1]; C.B-17 SCID, tumour, iv, 5 mg/kg, Tumor, 24 h, study CIV-12-112): 165 nM; Concentration ([1]; Plasma, 6 h, study CIV-12-112): 114 nM and 108 nM and 59 nM; Concentration ([1]; Tumor, 0.5 h, study CIV-11-055): 750 nM and 857 nM and 503 nM; Concentration ([1]; Tumor, 1 h, study CIV-11-055): 394 nM and 626 nM and 461 nM; Concentration ([1]; Tumor, 6 h, study CIV-11-055): 253 nM and 344 nM and 313 nM; Concentration ([1]; Tumor, 6 h, study CIV-12-112): 568 nM and 289 nM and 439 nM; Concentration ([1]; Tumor, 24 h, study CIV-11-055): 196 nM and 164 nM and 174 nM; Concentration ([1]; Tumor, 24 h, study CIV-12-112): 172 nM and 93 nM and 130 nM; plasma concentration relative to initial concentration ([2]; bolus IV, C.B-17 SCID mice, within 10 min): less than 20%; concentration at 0.05 h ([2]; female, C.B-17 SCID, mouse, plasma, intravenous, dosed at 5 mg/kg, 0.05 hr, read-out: Concentration AZD4320 in Plasma, Dose Adjusted to 10 mg/kg): 30600 ng/mL; concentration at 0.5 h ([2]; female, C.B-17 SCID, mouse, plasma, intravenous, dosed at 5 mg/kg, 0.5 hr, read-out: Concentration AZD4320 in Plasma, Dose Adjusted to 10 mg/kg): 1950 ng/mL; concentration at 1 h ([2]; female, C.B-17 SCID, mouse, plasma, intravenous, dosed at 5 mg/kg, 1 hr, read-out: Concentration AZD4320 in Plasma, Dose Adjusted to 10 mg/kg): 870 ng/mL; concentration at 2 h ([2]; female, C.B-17 SCID, mouse, plasma, intravenous, dosed at 5 mg/kg, 2 hr, read-out: Concentration AZD4320 in Plasma, Dose Adjusted to 10 mg/kg): 150 ng/mL; concentration at 4 h ([2]; female, C.B-17 SCID, mouse, plasma, intravenous, dosed at 5 mg/kg, 4 hr, read-out: Concentration AZD4320 in Plasma, Dose Adjusted to 10 mg/kg): 170 ng/mL; concentration at 6 h ([2]; female, C.B-17 SCID, mouse, plasma, intravenous, dosed at 5 mg/kg, 6 hr, read-out: Concentration AZD4320 in Plasma, Dose Adjusted to 10 mg/kg): 120 ng/mL; concentration at 8 h ([2]; female, C.B-17 SCID, mouse, plasma, intravenous, dosed at 5 mg/kg, 8 hr, read-out: Concentration AZD4320 in Plasma, Dose Adjusted to 10 mg/kg): 80 ng/mL; concentration at 0.05 h ([2]; female, C.B-17 SCID, mouse, plasma, iv, AZD4320 dosed at 5 mg/kg, 0.05 hr, read-out: Concentration AZD4320 in Plasma, Mean): 15300 ng/mL; concentration at 0.05 h ([2]; female, C.B-17 SCID, mouse, plasma, iv, AZD4320 dosed at 5 mg/kg, 0.05 hr, read-out: Concentration AZD4320 in Plasma, individual animals): 13900 ng/mL; concentration at 0.5 h ([2]; female, C.B-17 SCID, mouse, plasma, iv, AZD4320 dosed at 5 mg/kg, 0.5 hr, read-out: Concentration AZD4320 in Plasma, Mean): 977 ng/mL; concentration at 0.5 h ([2]; female, C.B-17 SCID, mouse, plasma, iv, AZD4320 dosed at 5 mg/kg, 0.5 hr, read-out: Concentration AZD4320 in Plasma, individual animals): 1080 ng/mL; concentration at 1 h ([2]; female, C.B-17 SCID, mouse, plasma, iv, AZD4320 dosed at 5 mg/kg, 1 hr, read-out: Concentration AZD4320 in Plasma, Mean): 436 ng/mL; concentration at 1 h ([2]; female, C.B-17 SCID, mouse, plasma, iv, AZD4320 dosed at 5 mg/kg, 1 hr, read-out: Concentration AZD4320 in Plasma, individual animals): 579 ng/mL; concentration at 2 h ([2]; female, C.B-17 SCID, mouse, plasma, iv, AZD4320 dosed at 5 mg/kg, 2 hr, read-out: Concentration AZD4320 in Plasma, Mean): 75.3 ng/mL; concentration at 2 h ([2]; female, C.B-17 SCID, mouse, plasma, iv, AZD4320 dosed at 5 mg/kg, 2 hr, read-out: Concentration AZD4320 in Plasma, individual animals): 79.7 ng/mL; concentration at 4 h ([2]; female, C.B-17 SCID, mouse, plasma, iv, AZD4320 dosed at 5 mg/kg, 4 hr, read-out: Concentration AZD4320 in Plasma, Mean): 86.3 ng/mL; concentration at 6 h ([2]; female, C.B-17 SCID, mouse, plasma, iv, AZD4320 dosed at 5 mg/kg, 6 hr, read-out: Concentration AZD4320 in Plasma, Mean): 60.1 ng/mL; concentration at 8 h ([2]; female, C.B-17 SCID, mouse, plasma, iv, AZD4320 dosed at 5 mg/kg, 8 hr, read-out: Concentration AZD4320 in Plasma, Mean): 41.3 ng/mL; clearance ([2]; female, C.B-17 SCID, plasma, mouse, 3-compartment model, conventional IV dose, read-out: Total Plasma Clearance CL (converted)): 0.493 mL/min; Concentration AZD4320 in Plasma, individual animals ([2]; AZD4320 dosed at 5 mg/kg, 0.05 hr): 16000 ng/mL; Concentration AZD4320 in Plasma, individual animals ([2]; AZD4320 dosed at 5 mg/kg, 0.5 hr): 1030 ng/mL and 822 ng/mL; Concentration AZD4320 in Plasma, individual animals ([2]; AZD4320 dosed at 5 mg/kg, 1 hr): 402 ng/mL and 328 ng/mL; Concentration AZD4320 in Plasma, individual animals ([2]; AZD4320 dosed at 5 mg/kg, 2 hr): 67.8 ng/mL and 78.4 ng/mL; Concentration AZD4320 in Plasma, individual animals ([2]; AZD4320 dosed at 5 mg/kg, 4 hr): 131 ng/mL and 54.4 ng/mL and 73.6 ng/mL; Concentration AZD4320 in Plasma, individual animals ([2]; AZD4320 dosed at 5 mg/kg, 6 hr): 92.1 ng/mL and 39.5 ng/mL and 48.8 ng/mL; Concentration AZD4320 in Plasma, individual animals ([2]; AZD4320 dosed at 5 mg/kg, 8 hr): 52.9 ng/mL and 53.4 ng/mL and 17.6 ng/mL; Compartmental Micro Constant k12 ([2]; mouse, 3-compartment model): 2.31 h⁻¹; Compartmental Micro Constant k13 ([2]; mouse, 3-compartment model): 3.92 h⁻¹; Compartmental Micro Constant k21 ([2]; mouse, 3-compartment model): 0.108 h⁻¹; Compartmental Micro Constant k31 ([2]; mouse, 3-compartment model): 4.36 h⁻¹; Central Compartment Volume Vc ([2]; mouse, 3-compartment model, conventional IV dose): 0.0042 L; efficacy (tumours; formulated in 0.5% Tween 80): no efficacy; efficacy (tumours; formulated in 30% hydroxypropyl-β-cyclodextrin): complete regression of the tumours
